# Measurements as given in ChEMBL document CHEMBL5537120 (Eur J Med Chem, 2024).
# Active and inactive are the calls of the source. No cut-off for these calls is given here. Where a SMILES comes first, the peptide text is derived from it. Bridges are numbered along the chain shown (N, C = ends).
# Test system: SARS-CoV-2
# Experiment: Antiviral activity against HIV-1 pseudotyped SARS-CoV-2 Omicron BA.2.75 infected in HEK293T cells harboring ACE2+/NRP1- assessed as reduction in infection rate pretreated with cells for 1 hr followed by viral infection and measured after 2 days by firefly luciferase reporter gene assay
# Assay type: functional, organism-based
# Settings: Severe acute respiratory syndrome coronavirus 2, time 49.0 hrs
row,SMILES,Activity
1,CC(C)C[C@@H]1NC(=O)[C@@H]2CCCN2C(=O)[C@H](CO)NC(=O)[C@@H](NC(=O)[C@H](Cc2cnc[nH]2)NC(=O)[C@H](CO)NC(=O)[C@H](Cc2ccccc2)NC(=O)[C@H](CC(=O)O)NC(=O)CN)CSSC[C@@H](C(=O)N[C@H](C(=O)N[C@@H](Cc2ccc(O)cc2)C(=O)N2CCC[C@H]2C(=O)N[C@@H](CC(=O)O)C(=O)N2CCC[C@H]2C(=O)N[C@@H](CCC(=O)O)C(=O)NCC(=O)NCC(=O)NCC(=O)N[C@@H](CCCCN)C(=O)N2CCC[C@H]2C(=O)N[C@@H](C)C(=O)N[C@@H](CCCNC(=N)N)C(=O)N2CCC[C@H]2C(=O)N[C@@H](C)C(=O)N[C@@H](CCCNC(=N)N)C(=O)O)[C@@H](C)O)NC(=O)[C@H](CCCCN)NC(=O)[C@H](Cc2ccccc2)NC(=O)[C@H](Cc2c[nH]c3ccccc23)NC(=O)[C@@H]2CCCN2C(=O)[C@H](Cc2ccccc2)NC(=O)[C@H](Cc2ccc(O)cc2)NC(=O)[C@H](CCCNC(=N)N)NC1=O (H-GDFSHCSPLRYFPWFKCTYPDPEGGGKPARPAR-OH; disulfide 6-17),Active
2,CC[C@H](C)[C@H](NC(=O)[C@H](Cc1ccccc1)NC(=O)[C@H](CCCCN)NC(=O)[C@H](CC(=O)O)NC(=O)CN)C(=O)N[C@H]1CSSC[C@@H](C(=O)N[C@@H](CC(N)=O)C(=O)N[C@@H](Cc2c[nH]c3ccccc23)C(=O)N[C@@H](Cc2ccc(O)cc2)C(=O)N[C@@H](CC(=O)O)C(=O)N2CCC[C@H]2C(=O)N[C@@H](CCC(=O)O)C(=O)NCC(=O)NCC(=O)NCC(=O)N[C@@H](CCCCN)C(=O)NCC(=O)N[C@@H](CC(N)=O)C(=O)N[C@@H](CCCNC(=N)N)C(=O)N2CCC[C@H]2C(=O)N2CCC[C@H]2C(=O)N[C@@H](CCCNC(=N)N)C(=O)O)NC(=O)[C@H](Cc2ccccc2)NC(=O)[C@H](CCCCN)NC(=O)[C@H](Cc2c[nH]c3ccccc23)NC(=O)[C@@H]2CCCN2C(=O)[C@H](CCCCN)NC(=O)[C@H](CC(=O)O)NC(=O)[C@H](CCCNC(=N)N)NC(=O)[C@H]([C@@H](C)CC)NC(=O)[C@@H]2CCCN2C(=O)[C@H](CC(C)C)NC1=O (H-GDKFICLPIRDKPWKFCNWYDPEGGGKGNRPPR-OH; disulfide 6-17),Active
3,CC(C)C[C@H](NC(=O)[C@H](CC(=O)O)NC(=O)CN)C(=O)N[C@@H](Cc1cnc[nH]1)C(=O)N[C@@H](C)C(=O)N[C@H]1CSSC[C@@H](C(=O)N[C@H](C(=O)N[C@@H](CC(C)C)C(=O)NCC(=O)N[C@@H](CC(=O)O)C(=O)N2CCC[C@H]2C(=O)N[C@@H](CCC(=O)O)C(=O)NCC(=O)NCC(=O)NCC(=O)N[C@@H](CCCNC(=N)N)C(=O)N[C@@H](CO)C(=O)N2CCC[C@H]2C(=O)N[C@@H](CCCNC(=N)N)C(=O)N[C@@H](CCCNC(=N)N)C(=O)N[C@@H](C)C(=O)N[C@@H](CCCNC(=N)N)C(=O)O)[C@@H](C)O)NC(=O)[C@H](C)NC(=O)[C@H](Cc2c[nH]c3ccccc23)NC(=O)[C@H](Cc2c[nH]c3ccccc23)NC(=O)[C@@H]2CCCN2C(=O)[C@H](CC(=O)O)NC(=O)CNC(=O)[C@H](CCCNC(=N)N)NC(=O)[C@H](C(C)C)NC(=O)[C@@H]2CCCN2C(=O)[C@H](CCCNC(=N)N)NC1=O (H-GDLHACRPVRGDPWWACTLGDPEGGGRSPRRAR-OH; disulfide 6-17),Active
4,CC[C@H](C)[C@@H]1NC(=O)[C@@H]2CCCN2C(=O)[C@H](CO)NC(=O)[C@@H](NC(=O)[C@@H](NC(=O)[C@H](Cc2ccc(O)cc2)NC(=O)[C@H](CCCNC(=N)N)NC(=O)[C@H](CC(=O)O)NC(=O)CN)[C@@H](C)O)CSSC[C@@H](C(=O)N[C@@H](CC(=O)O)C(=O)N[C@@H](CC(C)C)C(=O)NCC(=O)N[C@@H](CC(=O)O)C(=O)N2CCC[C@H]2C(=O)N[C@@H](CCC(=O)O)C(=O)NCC(=O)NCC(=O)NCC(=O)N[C@@H](CCCCN)C(=O)N[C@@H](C)C(=O)N2CCC[C@H]2C(=O)N[C@@H](CCCNC(=N)N)C(=O)N[C@@H](CCCNC(=N)N)C(=O)N[C@@H](C)C(=O)N[C@@H](CCCNC(=N)N)C(=O)O)NC(=O)[C@H](CCCNC(=N)N)NC(=O)[C@H](Cc2c[nH]c3ccccc23)NC(=O)[C@H](Cc2c[nH]c3ccccc23)NC(=O)[C@@H]2CCCN2C(=O)[C@H](Cc2ccccc2)NC(=O)[C@H](CCSC)NC(=O)[C@H](CCCNC(=N)N)NC1=O (H-GDRYTCSPIRMFPWWRCDLGDPEGGGKAPRRAR-OH; disulfide 6-17),Active
5,CC(C)C[C@@H]1NC(=O)[C@H](C)NC(=O)[C@H](CCCNC(=N)N)NC(=O)[C@@H](NC(=O)[C@@H]2CCCN2C(=O)[C@H](CO)NC(=O)[C@H](Cc2ccc(O)cc2)NC(=O)[C@H](CC(=O)O)NC(=O)CN)CSSC[C@@H](C(=O)N2CCC[C@H]2C(=O)N[C@@H](CO)C(=O)NCC(=O)N[C@@H](CC(=O)O)C(=O)N2CCC[C@H]2C(=O)N[C@@H](CCC(=O)O)C(=O)NCC(=O)NCC(=O)NCC(=O)N[C@@H](CCCNC(=N)N)C(=O)NCC(=O)N[C@@H](CCCNC(=N)N)C(=O)N[C@@H](CCCNC(=N)N)C(=O)N2CCC[C@H]2C(=O)N2CCC[C@H]2C(=O)N[C@@H](CCCNC(=N)N)C(=O)O)NC(=O)[C@H](CCCNC(=N)N)NC(=O)[C@H](Cc2c[nH]c3ccccc23)NC(=O)[C@H](Cc2c[nH]c3ccccc23)NC(=O)[C@@H]2CCCN2C(=O)[C@H](CO)NC(=O)[C@H](Cc2cnc[nH]2)NC(=O)[C@H](CCCNC(=N)N)NC1=O (H-GDYSPCRALRHSPWWRCPSGDPEGGGRGRRPPR-OH; disulfide 6-17),Active
